Assay results from patent publication US20220009894A1, “1,2,3,4-TETRAHYDROQUINOXALINE DERIVATIVE, PREPARATION METHOD THEREFOR AND APPLICATION THEREOF” (Abbisko Therapeutics Co., Ltd., priority 2019, published 2022).

Key:
RORγt-LBD = target: T1, RORγt-LBD (Homo sapiens, UniProt P51449); experiment: Time-resolved fluorescence resonance energy-transfer assay (TR-FRET), co-activator peptide recruitment; type: biochemical; set-up: TR-FRET Biochemical Amax: unit not given here; conditions: for EC50: His-RORγt-LBD 30 nM, SRC peptide 500 nM, agonistic activity, averages of one or more measurements, read-out: TR-FRET Biochemical EC50/; for TR-FRET Biochemical Amax: upper activation limit, His-RORγt-LBD, SRC peptide
T1 sequence (P51449 269-508 limits assumed): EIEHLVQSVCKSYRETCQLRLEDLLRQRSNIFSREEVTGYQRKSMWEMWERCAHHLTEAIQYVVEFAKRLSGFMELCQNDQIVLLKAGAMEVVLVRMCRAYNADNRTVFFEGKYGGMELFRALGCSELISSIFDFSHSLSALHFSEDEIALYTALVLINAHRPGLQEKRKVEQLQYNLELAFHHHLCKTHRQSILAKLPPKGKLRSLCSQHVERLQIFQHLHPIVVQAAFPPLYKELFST
Description: I. Time-Resolved Fluorescence Resonance Energy-Transfer Assay (TR-FRET)
This experiment was a screening experiment for RORγt nuclear receptor agonists based on TR-FRET technology. When His-labeled RORγt-LBD receptor binds to receptor agonists, it may increase the recruitment of biotin-labeled co-activator peptides. Europium-His-RORγt-LBD is indirectly labeled by donor (Eu) by binding to Eu-anti-His antibody. Once Eu is activated by an energy source (such as flashlight or laser), the energy will be transferred to the co-activator indirectly labeled by allophycocyanin by binding of allophycocyanin-streptavidin and biotin-labeled co-activator. • 1. 10× buffer (500 mM Tris-HCl, 500 mM KCl, and 10 mM Na-EDTA) was prepared, pH value was adjusted to 7.0. The buffer was stored at 4° C. for later use and was restored to normal temperature before experiment; • 2. The 10× buffer was diluted to 1× with pure water. Final concentration of 0.01% Triton X-100 and 1 mM DTT (dithiothreitol) were added to prepare the assay buffer; • 3. DMSO was used to prepare 1000× compound stock solution. The compound solution was serial-diluted in 5-fold for 7 concentrations from the top concentration of 1000 nM/10000 nM. Then the 10× compound solution was prepared with assay buffer. An amount of 2 μL was aliquoted into the 20 μL system; • 4. 5×RORγt-LBD protein solution was unfreezed, and a solution of 5× concentration was prepared with assay buffer to obtain a final concentration of 30 nM. The whole operation was carried out on ice; • 5. 5×SRC peptide was unfreezed, and a solution of 5× concentration was prepared with assay buffer to obtain a final concentration of 500 nM. The whole operation was carried out on ice; • 6. 4 μL/well of RORγt-LBD receptor was added into the testing wells of 384-well plate, and the same amount of assay buffer was added to the control wells of non-RORγt-LBD group; • 7. 2 μL of compound was added into each well of 384-well plate; • 8. 4 μL of SRC peptide was added into each well of 384-well plate; • 9. 2× Eu-anti-6× His/APC-Streptavidin was diluted with Lance detection buffer to a final concentration of 0.25 nM and 5 nM, respectively, and then 10 μL of 2× Eu-anti-6× His/APC-Streptavidin was added into each well of 384-well plate; • 10. The mixed solution was incubated at 4° C. overnight; • 11. On the morning of the next day, the 384-well plate was incubated at room temperature for 1 hr. Then the corresponding signal values were read with PerkinElmer EnVision at a wavelength of 665/615 […]. The agonistic activity of the corresponding compound was calculated with Graphpad Prism 7.0 software.

RORγt = target: T2, RORγt (Homo sapiens, UniProt P51449); experiment: RORγt cellular reporter gene detection assay; type: cell-based; conditions: 24 hrs; for EC50: HEK 293 cells co-transfected with pFN26A-RORγt-LBD and pG14.35, in presence of antagonist Ursolic acid, top concentration 50 μM; for Cellular Reporter Assay Amax: upper activation limit, HEK 293 cells, in presence of antagonist Ursolic acid;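 as to Cellular Reporter Assay Amax: Ursolic Acid added as 5 µL of 20 µM medium per well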
T2 construct: The plasmid of pFN26A-RORγt-LBD and pG14.35 (Promega, Cat. No. E1370) were co-transfected into HEK 293 cells; expressed in transfected cells; host or cells: HEK 293 cells (Cat. No. GNHu18)
T2 sequence (P51449 269-508 limits assumed): T1 sequence (P51449 269-508 limits assumed)
Description: II. RORγt Cellular Reporter Gene Detection Assay
In this experiment, RORγt Reporter Gene Detection method was used to evaluate the activation and specificity of compounds to RORγt in cells. The plasmid of pFN26A-RORγt-LBD and pG14.35 (Promega, Cat. No. E1370) were co-transfected into HEK 293 cells (Cat. No. GNHu18). The efficacy of compounds was evaluated with the presence of an antagonist Ursolic acid (Selleck, Cat. No. S2370-100 mg). The specific experimental process was as follow: • 1. The plasmids-co-transfected cells were inoculated into a 96-well plate (Corning, Cat. No 3610) in a fresh DMEM medium (Gibco, cat. No. 1773536) containing 10% fetal bovine serum (Gibco, Cat. No. 10099-141) at 30000 cells/40 μL/well; • 2. 5 μL of medium containing 20 μM Ursolic acid was added thereto; • 3. The dose effect was evaluated by a 4-fold dilution of the test compound starting from 50 μM; • 4. 5 μL of medium containing a compound concentration of 10-fold of its final test concentration was added; • 5. After the cells were incubated at 37° C. and 5% CO2 for 24 hrs, 50 μL of detection reagent was added to detect firefly fluorescence using PerkinElmerEnVision, and 50 μL of the second detection reagent was added to detect sea kidney fluorescence; • 6. A four-parameter curve simulated in GraphPad Prism was used to determine the concentration for 50% activation (EC50) and the upper activation limit (Amax) for each compound.

EC50 (RORγt-LBD) [nM]	TR-FRET Biochemical Amax (RORγt-LBD)	EC50 (RORγt) [nM]	Cellular Reporter Assay Amax (RORγt)	Structure (SMILES)
30.5	0.89	69.7	3.1	CC(=O)N1CCN2c3ccc(/C=C/c4c(Cl)cccc4C(F)(F)F)cc3N(S(=O)(=O)c3cccc(C(F)(F)F)c3)C[C@@H]2C1 [Example 14, (S,E)-1-(8-(2-chloro-6-(tri-fluoromethyl)styryl)-6-((3-(trifluoromethyl)phenyl)sul-fonyl)-1,2,4,4a,5,6-hexa-hydro-3H-pyrazino[1,2-a]quinoxalin-3-yl)ethan-1-one]
25	0.83	134	3.2	CC(=O)N1CCN2c3ccc(/C=C(\C)c4c(F)cccc4Cl)cc3N(S(=O)(=O)c3cccc(C(F)(F)F)c3)C[C@@H]2C1 [Example 15, (S,E)-1-(8-(2-(2-chloro-6-fluorophenyl)prop-1-en-1-yl)-6-((3-(trifluoromethyl)phenyl)sulfonyl)-1,2,4,4a,5,6-hexahydro-3H-pyrazino [1,2-a]quinoxalin-3-yl)ethan-1-one]
29.6	0.82	603	4.2	CS(=O)(=O)N1CCN2c3ccc(/C=C/c4c(Cl)cccc4C(F)(F)F)cc3N(S(=O)(=O)c3cccc(C(F)(F)F)c3)C[C@@H]2C1 [Example 17, (S,E)-8-(2-chloro-6-(tri-fluoromethyl)styryl)-3-(methylsulfonyl)-6-((3-(trifluoromethyl)phenyl)sulfonyl)-2,3,4,4a,5,6-hexahydro-1H-pyrazino [1,2-a]quinoxaline]
15.1	0.62	178	4.3	C/C(=C\c1ccc2c(c1)N(S(=O)(=O)c1cccc(C(F)(F)F)c1)C[C@@H]1CN(S(C)(=O)=O)CCN21)c1c(F)cccc1Cl [Example 18, (S,E)-8-(2-(2-chloro-6-fluorophenyl)prop-1-en-1-yl)-3-(methylsulfonyl)-6-((3-(trifluoromethyl)phenyl)sulfonyl)-2,3,4,4a, 5,6-hexahydro-1H-pyrazino[1,2-a]quinoxaline]
32	1.01	418	6.3	O=C(O)CN1CCN2c3ccc(/C=C/c4c(Cl)cccc4C(F)(F)F)cc3N(S(=O)(=O)c3cccc(C(F)(F)F)c3)C[C@@H]2C1 [Example 20, (S,E)-2-(8-(2-chloro-6-(trifluoro-methyl)styryl)-6-((3-(tri-fluoromethyl)phenyl)sulfonyl)-1,2,4,4a,5,6-hexahydro-3H-pyrazino[1,2-a]quinoxalin-3-yl)acetic acid]
17.6	0.94	273	5.5	C/C(=C\c1ccc2c(c1)N(S(=O)(=O)c1cccc(C(F)(F)F)c1)C[C@@H]1CN(CC(=O)O)CCN21)c1c(F)cccc1Cl [Example 21, (S,E)-2-(8-(2-(2-chloro-6-fluoro-phenyl)prop-1-en-1-yl)-6-((3-(trifluoromethyl)phenyl)sulfonyl)-1,2,4,4a,5,6-hexa-hydro-3H-pyrazino[1,2-a]quinoxalin-3-yl)acetic acid]

The remaining lines, values behind:

Structure (SMILES)	EC50 (RORγt-LBD) [nM]	TR-FRET Biochemical Amax (RORγt-LBD)	EC50 (RORγt) [nM]	Cellular Reporter Assay Amax (RORγt)
CC1(C)C=C(c2ccc3c(c2)N(S(=O)(=O)c2cccc(C(F)(F)F)c2)C[C@@H]2CNCCN32)CC(C)(C)O1 [Example 13, (S)-8-(2,2,6,6-tetramethyl-3,6-dihydro-2H-pyran-4-yl)-6-((3-(trifluorometh-yl)phenyl)sulfonyl)-2,3,4,4a,5,6-hexahydro-1H-pyrazino[1,2-a]quinoxaline]	35.8	0.74	1420	1.7
CC(=O)N1CCN2c3ccc(C4=CC(C)(C)OC(C)(C)C4)cc3N(S(=O)(=O)c3cccc(C(F)(F)F)c3)C[C@@H]2C1 [Example 16, (S)-1-(8-(2,2,6,6-tetramethyl-yl-3,6-dihydro-2H-pyran-4-yl)-6-((3-(trifluoromethyl)phenyl)sulfonyl)-1,2,4,4a, 5,6-hexahydro-3H-pyrazino [1,2-a]quinoxalin-3-yl) ethan-1-one]	9.52	0.78	59	2.0
CC1(C)C=C(c2ccc3c(c2)N(S(=O)(=O)c2cccc(C(F)(F)F)c2)C[C@@H]2CN(S(C)(=O)=O)CCN32)CC(C)(C)O1 [Example 19, (S)-3-(methylsulfonyl)-8-(2,2,6,6-tetramethyl-3,6-dihydro-2H-pyran-4-yl)-6-((3-(trifluorometh-yl)phenyl)sulfonyl)-2,3,4,4a,5,6-hexahydro-1H-pyrazino[1,2-a]quinoxaline]	17.8	0.97	25.7	2.0
CC1(C)C=C(c2ccc3c(c2)N(S(=O)(=O)c2cccc(C(F)(F)F)c2)C[C@@H]2CN(CC(=O)O)CCN32)CC(C)(C)O1 [Example 22, (S)-2-(8-(2,2,6,6-tetramethyl-3,6-dihydro-2H-pyran-4-yl)-6-((3-(trifluoromethyl)phenyl)sulfonyl)-1,2,4,4a,5,6-hexa-hydro-3H-pyrazino[1,2-a]quinoxalin-3-yl)acetic acid]	1.51	0.62	245	3.3
COC(=O)C(C)N1CCN2c3ccc(/C=C(\C)c4c(F)cccc4Cl)cc3N(S(=O)(=O)c3cccc(C(F)(F)F)c3)C[C@@H]2C1 (stereo partly drawn) [Example 23, methyl 2-((S)-8-((E)-2-(2-chloro-6-fluorophenyl)prop-1-en-1-yl)-6-((3-(trifluoromethyl)phenyl)sulfonyl)-1,2,4,4a,5,6-hexahydro-3H-pyrazino[1,2-a]quinoxalin-3-yl)propanoate]	17.2	0.79	1080	3.8
COC(=O)C(C)N1CCN2c3ccc(C4=CC(C)(C)OC(C)(C)C4)cc3N(S(=O)(=O)c3cccc(C(F)(F)F)c3)C[C@@H]2C1 (stereo partly drawn) [Example 24, methyl 2-((S)-8-(2,2,6,6-tetramethyl-3,6-dihydro-2H-pyran-4-yl)-6-((3-(trifluoro-methyl)phenyl)sulfonyl)-1,2,4,4a,5,6-hexahydro-3H-pyrazino[1,2-a]qui-noxalin-3-yl)propanoate]	31.5	0.92	48.5	2.4
